Key:
[1] = system: ERα transfected HEK293 cells; assay: MTT cell viability, ERα transfected HEK293 cells; format: cell-based, human; settings: 0–100 μM, 72 h, Fig 6B
Description: (§1) Compounds were dissolved in DMSO to the final concentration of 100 μM. A549, CCD39Lu, MCF-7, MDA-MB-231 and MCF-12A cells were seeded in 96 wells plates at density 2x10^4 cells/well and incubated overnight as described above. Subsequently, cells were treated with tested compounds at concentrations: 100 μM; 50 μM; 25μM; 12.5μM; 6 μM; 3 μM; 1.5 μM. […] Cells were incubated 72 h at 37°C in a humidified atmosphere containing 5% CO2 in the cell culture media appropriate for each cell line. Then, the medium was aspirated and 170 μl MTT solution (5mg/ml) was added to each well. Plates were incubated for 2 hours at 37°C, and then plates were centrifuged at 1200 rpm for 3 minutes. […] Absorbance at 570 nm (with reference wavelenght 650 nm) was measured using a plate reader (Biotek Instruments, Elx-800). Cell viability was calculated as a percentage relative to the control.
(§2) Fig 6 Estrogenic and cytotoxic activity of tested compounds in HEK293 cells transfected with wild type ERα receptor or plasmids bearing mutated versions of ERα. […] Results are expressed as mean ± SEM (n = 8). * p < 0.05 was considered statistically significant. […] 48 h after transfection, cells were incubated in the presence of increasing concentrations of compounds 18 for 72 h and cell viability was measured by MTT assay. […]

[2] = system: ERα W383S transfected HEK293 cells; assay: MTT cell viability, ERα W383S transfected HEK293 cells; format: cell-based, human; settings: 0–100 μM, 72 h, compared to wild type ERα, Fig 6B
Description: as §1, §2

MTT assay, MCF-12A = format: cell-based; settings: human, MCF-12A cells (non-tumorigenic breast epithelial), read-out: Cytotoxic activity IC50, MCF-12A
Description: The cell lines used in the cytotoxicity study, besides MCF-12A, were purchased from European Collection of Cell Culture (ECACC, Salisbury, UK): HEK293 (human embryonic kidney, ATTC no. CRL-1573), A549 (Human lung carcinoma, ECACC no. 86012804), CCD39Lu (Human lung fibroblasts, ECACC no. 90110512), MCF-7 (Human breast adenocarcinoma, ECACC no. 86012803) and MDA-MB-231 (Human breast adenocarcinoma ECACC no. 92020424). Cell lines were cultured in DMEM medium without phenol red and supplemented with 10% (v/v) FBS, 1% penicillin-streptomycin and 1% L-glutamine. MCF-12A (ATTC no. […]) was purchased from American Type Culture Collection (ATCC Manassas, VA 20110 USA). MCF-12A cells were kept in 1:1 mixture of Dulbecco’s modified Eagle’s medium and Ham’s F12 medium, 20 ng/ml human epidermal growth factor, 100 ng/ml cholera toxin, 0.01 mg/ml bovine insulin, 500 ng/ml hydrocortisone and 5% horse serum. All cell lines were cultured at 37°C, in a humidified atmosphere containing 5% CO2.
Compounds were dissolved in DMSO to the final concentration of […]. A549, CCD39Lu, MCF-7, MDA-MB-231 and MCF-12A cells were seeded in 96 wells plates at density 2x10^4 cells/well and incubated overnight as described above. Subsequently, cells were treated with tested compounds at concentrations: 100 μM; 50 μM; 25μM; 12.5μM; 6 μM; 3 μM; 1.5 μM. […] Cells were incubated 72 h at 37°C in a humidified atmosphere containing 5% CO2 in the cell culture media appropriate for each cell line. Then, the medium was aspirated and 170 μl MTT solution (5mg/ml) was added to each well. Plates were incubated for 2 hours at 37°C, and then plates were centrifuged at 1200 rpm for 3 minutes. The formazan crystals were dissolved in 200 μl DMSO and plates were further agitated on a plate shaker at 300–500 rpm for 10 minutes. Absorbance at 570 nm (with reference wavelenght 650 nm) was measured using a plate reader (Biotek Instruments, Elx-800). Cell viability was calculated as a percentage relative to the control.

estrogen receptor = molecular target: T1, estrogen receptor (Homo sapiens, UniProt P03372); assay: Estrogen Receptor luciferase assay in MCF-7 cells (endogenous ER); format: cell-based; settings: MCF-7 transfected with p3xERRE/ERE-luciferase, Fig 3C
T1 construct: MCF-7 cells, which endogenously express ERα receptor; endogenous in cells; host or cells: MCF-7
T1 sequence (P03372 1-595): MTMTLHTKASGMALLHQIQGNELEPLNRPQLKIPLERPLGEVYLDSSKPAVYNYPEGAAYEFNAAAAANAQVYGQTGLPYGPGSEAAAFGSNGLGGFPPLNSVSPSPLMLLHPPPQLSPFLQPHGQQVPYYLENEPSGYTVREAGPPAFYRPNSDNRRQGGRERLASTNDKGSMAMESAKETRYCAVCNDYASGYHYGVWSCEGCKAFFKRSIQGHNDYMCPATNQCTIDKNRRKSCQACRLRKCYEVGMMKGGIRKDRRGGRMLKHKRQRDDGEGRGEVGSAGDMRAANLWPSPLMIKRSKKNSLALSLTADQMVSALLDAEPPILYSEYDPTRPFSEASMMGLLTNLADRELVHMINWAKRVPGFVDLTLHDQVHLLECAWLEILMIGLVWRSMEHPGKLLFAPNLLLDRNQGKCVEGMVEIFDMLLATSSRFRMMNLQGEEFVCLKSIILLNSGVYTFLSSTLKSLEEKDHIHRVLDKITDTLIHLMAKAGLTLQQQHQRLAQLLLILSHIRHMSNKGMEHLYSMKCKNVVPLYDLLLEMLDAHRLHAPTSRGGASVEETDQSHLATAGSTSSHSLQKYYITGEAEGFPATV
Text: To obtain a eukaryotic vector expressing only the ER-α nuclear receptor, a construct was designed by cloning a KpnI-BamHI fragment from plasmid pEGFP-C1-ERα containing the ERα coding sequence that includes a stop signal into the pEGFP-N3 plasmid (Clontech Laboratories, Palo Alto, CA) under the control of the CMV promoter. This construction was termed pEGFP-N-ERα, and although it encoded both human ERα receptor and GFP protein, only the former is expressed. For mock transfections, pEGFP-N3 plasmid was digested with BglII and NotI and religated after polishing DNA ends to remove GFP coding sequence. Plasmid sequence was confirmed by automatic sequencing. Prior to transfection, cells were seeded in 48 well plates at density of 1.5 x 10^4 cells/well and incubated for 24 h to reach a cell confluence of 80–90%. […] MCF-7 cells, which endogenously express ERα receptor, were transfected with p3xERRE/ERE-luciferase plus the pRLTK Renilla luciferase control plasmid (95:5). Firefly and Renilla luciferase activities were measured using the Dual Luciferase Assay System (Promega, Madison, WI, USA), following a standard protocol using a Sirius L luminometer (Berthold Technologies, Bad Wildbad, Germany). Data were expressed as relative changes in luciferase activity and normalized to 100%.

Fc1ccc(NC(=S)c2ccc(NC(=S)c3ccc(F)cc3)cc2)cc1 [Compound 18]
Cell viability, ERα transfected HEK293 [1]: significantly decreased cell viability | Cell viability, ERα W383S transfected HEK293 [2]: decrease was significantly smaller | IC50 at 72 h (MTT assay, MCF-12A): 91.5 µM | Transcriptional (luciferase) activity in MCF-7 (estrogen receptor): significantly higher transcriptional activity compared to estradiol

From article PMC4701221, “Novel Promising Estrogenic Receptor Modulators: Cytotoxic and Estrogenic Activity of Benzanilides and Dithiobenzanilides” (PLoS ONE, 2016)
